In patent US20240199624A1, “COMPOUNDS, COMPOSITIONS, AND METHODS” (CHDI Foundation, Inc., priority 2022, published 2024) one finds IC50 data, which are given here for two compounds.

The target of one test is T1, human MutSbeta (Homo sapiens, UniProt P20585+P43246).
T1 construct: Msh2(1-934), Gene ID NP_000242.1; Msh3(1-1137), Gene ID J04810.1
The experiment in a line: P33 SPA 1.1. Type of test: biochemical. The settings on record: Table 5A; enzyme first added to compounds, then ATP. The protocol: P33 SPA: Enzyme human MutSbeta (Msh2(1-934), Gene ID NP_000242.1, Msh3(1-1137), Gene ID J04810.1) and 22 bp biotin-labeled DNA containing a GT-mismatch (purchased from Curia Global, TOP 5′-[…]-3′; BOT 3′-AGTAGCTAGGC - - - CGAAGTCTACC-5′-Biotin) were pre-incubated at equimolar concentration for 15 min at room temperature (“RT”) in assay buffer (25 mM HEPES pH=7.5, 150 mM KCl, 2 mM MgCl2, 2 mM GSH, 0.01% Tween-20). ATP (10 μL, 2× final concentration of γ-[^33P]-ATP (final 0.1 nM; Hartmann Analytic, FF-301) and cold ATP (final 2 μM)) was added to compounds (400 nL spotted as concentration response in 100% DMSO into wells of an OptiPlate) and pre-incubated for 30 min at RT. Then, enzyme with DNA was added (10 μL, 2× final concentration of 7 nM) and incubated for 60 min at 37° C. in a total volume of 20 μL per well. Decay of [^33P] with a half-life of 25.4 days was corrected by increasing the concentration of the labelled nucleotide with the appropriate factor; all steps with radioactive ATP were conducted behind appropriate shielding. Then, 20 μL of a 1:2 mix of ammonium molybdate (20 mg/mL Ammonium molybdate in 2.4 M HCl) and SPA beads (ProteinA SPA beads from Perkin Elmer Cat #RPNQ0019 at 7.5 mg/mL+1% azide) was added per well and incubated at RT for 2 min. Then, 40 μL of 7 M CsCl and 0.1 M citrate was added per well and incubated for 20 h at RT before measuring on the MicroBeta (top read mode, 1 min per well). For full plate processing, all reagents were transferred with a pipettor (Selma, CyBio) apart from the final reagent (CsCl+citrate) which was added with a dispenser (MultiFlo, BioTek). Data analysis during assay development was done with Prism GraphPad.
P33 SPA 11: For the SPA 1.1 assay, the addition of reagents was reversed, i.e. enzyme was first added to the compounds and pre-incubated followed by ATP addition; thus, the assay was aligned with ADP Glo 1.1 reagent addition order. The assay was repeated under similar conditions, and the results are shown below in Table 5B. It is contemplated the solubility of the compounds and/or varying test occasions may account for variability of assay results.

The target of the next test is T2, MSH2 (human MutSbeta) (Homo sapiens, UniProt P43246).
T2 construct: Msh2(1-934), Gene ID NP_000242.1
T2 sequence (P43246 whole entry): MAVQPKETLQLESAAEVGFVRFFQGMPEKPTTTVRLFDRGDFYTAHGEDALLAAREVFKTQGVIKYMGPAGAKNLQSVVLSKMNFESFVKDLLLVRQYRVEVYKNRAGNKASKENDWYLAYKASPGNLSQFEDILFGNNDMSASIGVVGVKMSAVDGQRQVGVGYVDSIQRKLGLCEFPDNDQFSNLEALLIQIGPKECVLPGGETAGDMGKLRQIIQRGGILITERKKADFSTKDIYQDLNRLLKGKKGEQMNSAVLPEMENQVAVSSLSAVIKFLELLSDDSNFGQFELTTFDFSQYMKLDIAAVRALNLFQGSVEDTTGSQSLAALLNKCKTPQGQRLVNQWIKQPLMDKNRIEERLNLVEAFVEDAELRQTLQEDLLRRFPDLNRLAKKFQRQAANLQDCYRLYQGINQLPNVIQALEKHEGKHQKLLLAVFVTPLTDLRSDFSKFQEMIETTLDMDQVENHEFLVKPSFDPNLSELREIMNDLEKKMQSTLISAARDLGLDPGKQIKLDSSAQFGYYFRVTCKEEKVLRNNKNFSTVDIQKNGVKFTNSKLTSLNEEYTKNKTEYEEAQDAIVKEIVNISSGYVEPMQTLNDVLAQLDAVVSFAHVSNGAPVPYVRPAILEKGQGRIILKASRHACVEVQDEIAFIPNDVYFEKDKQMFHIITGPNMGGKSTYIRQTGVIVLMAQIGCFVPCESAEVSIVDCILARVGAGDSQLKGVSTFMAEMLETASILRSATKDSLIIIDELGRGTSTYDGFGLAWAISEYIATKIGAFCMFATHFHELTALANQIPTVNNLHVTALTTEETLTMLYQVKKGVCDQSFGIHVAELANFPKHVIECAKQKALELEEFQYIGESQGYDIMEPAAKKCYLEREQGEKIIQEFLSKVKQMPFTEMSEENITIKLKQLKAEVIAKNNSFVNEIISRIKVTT
T2 sequence (P20585 whole entry partner): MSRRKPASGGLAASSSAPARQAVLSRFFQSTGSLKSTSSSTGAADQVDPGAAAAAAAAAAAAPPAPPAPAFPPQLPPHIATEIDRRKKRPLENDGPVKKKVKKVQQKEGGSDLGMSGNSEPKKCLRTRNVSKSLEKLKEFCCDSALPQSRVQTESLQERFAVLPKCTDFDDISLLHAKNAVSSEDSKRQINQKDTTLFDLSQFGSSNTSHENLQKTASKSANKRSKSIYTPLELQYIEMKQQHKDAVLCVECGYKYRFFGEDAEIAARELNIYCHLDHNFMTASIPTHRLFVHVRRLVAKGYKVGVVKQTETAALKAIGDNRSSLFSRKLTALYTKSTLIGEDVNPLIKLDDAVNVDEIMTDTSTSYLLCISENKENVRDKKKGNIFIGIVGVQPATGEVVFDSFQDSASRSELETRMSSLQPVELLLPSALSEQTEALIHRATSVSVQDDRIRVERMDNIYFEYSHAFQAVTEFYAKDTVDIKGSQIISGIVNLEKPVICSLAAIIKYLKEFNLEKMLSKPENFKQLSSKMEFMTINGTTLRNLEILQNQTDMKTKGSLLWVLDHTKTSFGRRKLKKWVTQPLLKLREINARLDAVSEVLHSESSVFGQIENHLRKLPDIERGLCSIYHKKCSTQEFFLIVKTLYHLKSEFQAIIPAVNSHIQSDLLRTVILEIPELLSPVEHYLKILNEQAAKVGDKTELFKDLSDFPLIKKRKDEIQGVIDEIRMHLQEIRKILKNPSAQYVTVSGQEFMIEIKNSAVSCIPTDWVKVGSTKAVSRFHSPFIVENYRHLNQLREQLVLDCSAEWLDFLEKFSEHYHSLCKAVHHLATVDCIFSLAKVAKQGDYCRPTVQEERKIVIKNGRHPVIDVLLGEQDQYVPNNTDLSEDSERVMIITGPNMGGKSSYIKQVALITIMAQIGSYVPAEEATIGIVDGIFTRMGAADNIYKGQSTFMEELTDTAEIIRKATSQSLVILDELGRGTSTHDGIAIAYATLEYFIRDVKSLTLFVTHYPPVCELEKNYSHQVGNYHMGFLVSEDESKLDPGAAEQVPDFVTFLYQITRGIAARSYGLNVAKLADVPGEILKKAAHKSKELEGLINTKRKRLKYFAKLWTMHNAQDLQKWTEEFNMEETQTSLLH
The experiment in a line: ATP binding and cross-linking assay (MSH2 subunit). The settings on record: [32P]-ATP UV cross-linking to MSH2 subunit of MutSbeta; read-out: cross-link assay IC50 MSH2. The protocol: ATP binding and cross-linking assay: Enzyme human MutSbeta (Msh2(1-934), Gene ID NP_000242.1, Msh3(1-1137), Gene ID J04810.1) was adjusted to 0.2 μM and, in experiments in the presence of 22 bp biotin-labeled DNA containing a GT-mismatch (purchased from Curia Global, TOP 5′-[…]-3′; BOT 3′-AGTAGCTAGGC - - - CGAAGTCTACC-5′-Biotin), pre-incubated with DNA at equimolar concentration for indicated time and temperature. All reagents were kept on ice. Enzyme was then incubated on ice for the indicated time with 5 nM γ-[^32P]-ATP (Hartmann Analytic, FP-301) or α-[^32P]-ATP (Perkin Elmer, NEG003H250UCSBF4 or Hartmann Analytic, FP-207) and addition of cold ATP (10 μM) or ADP (0.3 μM). The total volume was 20 μL and the samples were handled in Eppendorf reaction tubes. The assay buffer was 25 mM HEPES pH=7.5, 150 mM KCl, 5 mM MgCl2, 5 mM GSH, 0.01% Tween-20. All steps with radioactive ATP were conducted behind appropriate shielding. The samples were then placed on dry ice until they were frozen solid. […] The screen was analyzed in the imager (GE Healthcare, Fluorescent Image Analyzer, Typhoon FLA 7000, #5622514B), and the image was analyzed with imageJ software.

T1 sequence (P43246 whole entry): as the sequence (P43246 whole entry) above
T1 sequence (P20585 whole entry): as the sequence (P20585 whole entry partner) above

The term IC50 denotes the concentration needed to halve the response being measured. Regarding `Cc1ccc(Nc2nc(N3CCN(C)CC3)nc3nccnc23)cc1C` [Compound 2, N-(3,4-dimethylphenyl)-2-(4-methylpiperazin-1-yl)pteridin-4-amine], the figures for the IC50 against human MutSbeta and at MSH2 (human MutSbeta) were 55.9 µM and 120 µM, respectively.

For `CCN1CCN(c2nc(Nc3ccc(Cl)cc3)c3nccnc3n2)CC1` [Compound 4, N-(4-Chlorophenyl)-2-(4-ethylpiperazin-1-yl)pteridin-4-amine], the IC50 against human MutSbeta stood at 40.5 µM; at MSH2 (human MutSbeta), 215 µM.
